These results are taken from patent US20100144737A1, “METHODS FOR INHIBITING T HELPER CELL DIFFERENTIATION” (FibroGen, Inc., priority 2008, published 2010).

Molecules are shown by their SMILES.

The test system of one data set is naïve T helper cells. Briefly: T helper cell number and viability (Guava ViaCount). Type of data set: cell-based, human. As to conditions: day 7. The method, then: To examine the effect of compounds and methods of the present invention on T helper cell number and viability, the following studies were performed. Human cord blood naive T helper cells (AllCells LLC, Emeryville, Calif.) were stimulated (i.e., T cell receptor (TCR) stimulation) by seeding into 96-well culture dishes coated with 5 μg/ml anti-CD3 antibody (clone UCHT1, R&D Systems, Minneapolis, Minn.), and 5 μg/ml anti-CD28 antibody (clone ANC28.1/D10, Ancell Corporation, Bayport, Minn.), and cultured at 37° C, 5% CO2 in RPMI-1640 (Mediatech Inc., Herndon, Va.) containing 1% FBS, 1 U/ml penicillin-1 μg/ml streptomycin (invitrogen Corporation, Carlsbad, Calif.), and 50 U/ml IL-2 (Roche Diagnostics Corporation, Indianapolis, Ind.). […] The T helper cells were then collected and cell number and cell viability were analyzed using Guava ViaCount reagents and the Guava PCA System (Guava Technologies, Hayward, Calif.).
In another set of experiments, the effect of compounds and methods of the present invention on T helper cell number and viability was determined. […] The T helper cells were then collected and cell number and cell viability were analyzed using Guava ViaCount reagents and the Guava PCA System (Guava Technologies, Hayward, Calif.).

The subject of the next data set is Naive T helper cells. The data set can be described thus: Secretion of pro-inflammatory cytokines (IFN-γ, TNF-α) from TCR-stimulated T helper cells, conditioned media. Type of data set: cell-based, human. Conditions: seven days. The protocol:
The effect of methods and compounds of the present invention on T helper cell secretion of pro-inflammatory cytokines was evaluated as follows. Naive T helper cells (AllCells LLC, Emeryville, Calif.) obtained from human cord blood were stimulated (i.e., T cell receptor (TCR) stimulation) by seeding into 96-well culture dishes coated with 5 μg/ml anti-CD3 antibody (clone UCHT1, R&D Systems, Minneapolis, Minn.) (Tanaka et.al. (1989) J Immunol 142:2791-2795.), and 5 μg/ml anti-CD28 antibody (clone ANC28.1/D10, Ancell Corporation, Bayport, Minn.), and cultured at 37° C., 5% CO2 in RPMI-1640 (Mediatech Inc., Herndon, Va.) containing 1% FBS, 1 U/ml penicillin-1 μg/ml streptomycin (Invitrogen Corporation, Carlsbad, Calif.), and 50 U/ml IL-2 (Roche Diagnostics Corporation, Indianapolis, Ind.). At the time of seeding, cells were cultured with media alone or with media containing 2 ng/ml IL-12 (R&D Systems, Minneapolis, Minn.) (to stimulate differentiation of the T helper cells into Th1 cells) and 10 μg/ml anti-IL4 antibody (R&D Systems, Minneapolis, Minn.) (to block differentiation of the T helper cells into Th2 cells). Compound A or 1% DMSO (Veh) was added to the existing media and the cells were cultured for an additional seven days. The conditioned media was then collected from the cell cultures and analyzed for interferon-gamma (IFN-γ) and tumor necrosis factor-alpha (TNF-α) levels using MS2400 Human Tissue Culture Cytokine Detection Kits (MesoScale Technologies, Gaithersburg, Md.) according to the manufacturer's instructions. In another series of experiments, the effect of methods and compounds of the present invention on T helper cell secretion of pro-inflammatory cytokines was evaluated as follows. Naive T helper cells were stimulated substantially as described above with the following modification: cell cultures contained 100 U/ml penicillin-100 U/ml streptomycin. Various compounds of the present invention or 1% DMSO (Veh) was added to the existing media and the cells were cultured for an additional six days. Following stimulation with IL-12, conditioned media was then collected from the cell cultures and analyzed for interferon-gamma (IFN-γ) levels using MS2400 Human Tissue Culture Cytokine Detection Kits (MesoScale Technologies, Gaithersburg, Md.) according to the manufacturer's instructions.

Setting [1] is: TCR-stimulated T helper cells with 2 ng/ml IL-12 and anti-IL4 antibody, vs IL-12 and vehicle.
Where [2] appears, read: TCR-stimulated T helper cells, without IL-12 addition, vs vehicle.

For `Cc1nc(C(=O)NCC(=O)O)c(O)c2ccc(Oc3ccccc3)cc12` [Compound A, [(4-Hydroxy-1-methyl-7-phenoxy-isoquinoline-3-carbonyl)-amino]-acetic acid], in the data set on naïve T helper cells, the “percent of viable T helper cells” value is listed as “did not decrease” and the “total number of viable T helper cells” value is “did not decrease”. In the data set with Naive T helper cells (setting [1]), the “IL-12-induced increase in IFN-γ levels” value was “inhibited the increase” and the “IL-12-induced increase in TNF-α levels” value is “inhibited the increase”. In the data set on Naive T helper cells (setting [2]), the “IFN-γ levels in the conditioned media” value is “reduction” and the “TNF-α levels in the conditioned media” value is reported as “reduction”.
